Data published in patent publication US9255279B2, “Anaplastic lymphoma kinase (ALK) as an oncogene capable of transforming normal human cells” (The Trustees of the University of Pennsylvania, priority 2013, dated 2016).

What was measured:
CD30 [1] = assay: CD30 expression in ALK-negative T-cell lymphoma line 2A; assay type: cell-based, human; details: ALK-negative T-cell lymphoma cells (2A); FIG. 3B
Description: (§1) The cells were analyzed using FACSCalibur (BD Biosciences) and, for data analysis, CellQuest Pro software version 6.03 (BD Biosciences). For the standard cell-surface staining, 0.5−1.0×10^6 cells were incubated for 20 minutes at 4° C. with 10-20 ul of fluorescein isothiocyanate-conjugated (FITC), phycoerythrin-conjugated (PE), or allophycocyanin-conjugated (APC) standard anti-T- and B-cell antibodies, PD-L1 or isotype control antibody (Bio-Legend, San Diego, Calif.). The intracellular staining was performed by using commercially available fixation and permeabilization reagents (BD Biosciences or Life Technologies, Carlsbad, Calif.). In brief, 0.5−1.0×10^6 washed membrane-stained or unstained cells were fixed for 15 minutes at room temperature with 100 ul of Fix/Per-solution or Fixation medium. After washing the cells were re-suspended in 100 ul of PBS or Permeabilization medium, and incubated for 15 minutes at room temperature with 10-20 ul of PE-labeled ALK or isotype control antibody (BD Biosciences). After additional washing, cells were analyzed by flow cytometry (FACSCalibur; BD Biosciences). Data acquisition and analysis were performed using CellQuest Pro software version 6.03 (BD Biosciences).

PD-L1 = PD-L1 expression by flow cytometry; assay type: cell-based, human; details: 100 nM; FIG. 3D
Description: as §1

NPM-ALK [2] = molecular target: T1, NPM-ALK (Homo sapiens, UniProt Q9UM73); assay: Phosphorylation of ALK and its targets in NPM-ALK-transfected HEK cells; assay type: cell-based; design: expressed in transfected cells; the other entry of the earlier key: NPM1 (P06748, Nucleophosmin); details: higher dose of inhibitor needed, FIG. 10
T1 sequence (Q9UM73 with tags, fused parts or gaps): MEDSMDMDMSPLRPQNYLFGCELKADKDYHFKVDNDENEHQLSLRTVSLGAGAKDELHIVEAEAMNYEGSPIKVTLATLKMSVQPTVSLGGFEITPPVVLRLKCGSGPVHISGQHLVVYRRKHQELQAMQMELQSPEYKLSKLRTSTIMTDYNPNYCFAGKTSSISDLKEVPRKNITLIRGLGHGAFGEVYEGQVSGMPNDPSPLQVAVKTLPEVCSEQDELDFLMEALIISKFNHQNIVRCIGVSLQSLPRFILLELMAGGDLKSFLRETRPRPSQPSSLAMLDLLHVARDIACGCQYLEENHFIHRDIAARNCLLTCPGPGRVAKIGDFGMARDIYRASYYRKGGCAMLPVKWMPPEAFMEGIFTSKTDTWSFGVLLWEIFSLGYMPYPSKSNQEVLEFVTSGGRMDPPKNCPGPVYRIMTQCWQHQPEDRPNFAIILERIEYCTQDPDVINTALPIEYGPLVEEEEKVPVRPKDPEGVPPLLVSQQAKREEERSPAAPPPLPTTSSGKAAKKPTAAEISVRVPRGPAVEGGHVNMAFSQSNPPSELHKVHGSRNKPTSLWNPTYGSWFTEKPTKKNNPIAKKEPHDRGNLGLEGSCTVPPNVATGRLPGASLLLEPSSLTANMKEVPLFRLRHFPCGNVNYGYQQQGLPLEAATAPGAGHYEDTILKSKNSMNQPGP
Description: (§2) These experiments were performed using antibodies against phosphorylated (p)-ALK, p-STAT3, p-S6RP, total S6RP (Cell Signaling Technology), total NPM-ALK (Pharmigen, San Diego, Calif.), and total STAT3 and actin (ACTB), both from Santa Cruz Biotechnology (Santa Cruz, Calif.), according to the standard protocols.

[3] = system: NPM-ALK-transformed CD4+ T cells; assay: Cell growth of NPM-ALK-transformed CD4+ T cells; assay type: cell-based, human; details: FIG. 3E and FIG. 12A
Description: The cells suspended at 2×10^4/well were incubated at 37° C. in microtiter plates for up to two days, then incubated with MTT (Promega Madison, […].) for 4 hours. Well contents were solubilized overnight in the medium containing 10% SDS and 0.01M HCL. Absorbance at 570 nm in each well was measured using a Titertek Multiskan reader (Thermo Fisher Scientific).
The assay was performed using a cell-proliferation enzyme linked immunosorbent assay (ELISA; Roche Diagnostics, Indianapolis, Ind.) according to the manufacturer's protocol. In brief, cells were cultured at a concentration of 2×10^4 cells per well for 44 hours and labeled with bromodeoxyuridine for 4 hours. After centrifugation, supernatant removal, and plate drying, the cells were fixed and the DNA was denatured using FixDenat reagent (Roche Diagnostics). The amount of incorporated bromodeoxyuridine was determined by incubation with a specific antibody conjugated with horseradish peroxidase, followed by colorimetric conversion of the substrate and absorbance evaluation in the ELISA plate reader.
For annexin V expression assay, cells were treated with the ALK inhibitor CEP-28122 (100 nmol/L) for 48 hours or with ALK siRNA (100 pmol/L) for 72 hours. […] The stained cells were analyzed by flow cytometry using a FACSCalibur system (BD Biosciences); data acquisition and analysis were performed using Cell-Quest Pro software (BD Biosciences).

NPM-ALK [4] = molecular target: T1, NPM-ALK; assay: Western blotting of phosphorylated signaling proteins in NPM-ALK-transformed CD4+ T cells (NA1, NA2) and SUDHL-1; assay type: cell-based; design: expressed in transfected cells; host or cells: Human CD4+ T cells transduced with a lentiviral vector (lines NA1, NA2); The control line SUDHL-1 expresses NPM-ALK endogenously from the translocation; the other entry of the earlier key: NPM1 (P06748, Nucleophosmin); details: NA1, NA2 and control SUDHL-1 cells, 100 nM, FIG. 3A
Description: as §2
A mixture of four siRNAs specific for ALK or control siRNAs (all from Dharmacon; Thermo Fisher Scientific, Waltham, Mass.) was introduced into cells using Lipofectamine 2000 as described previously (Marzec et al., 2008, Proc Natl Acad Sci USA 105(52):20852-20857) for SUDHL-1 cells and Nucleofector T-solution (Amaxa; Lonza, Walkersville, Md.) for CD4+ T-cell derived NA1 cells.

CD30 [5] = assay: CD30 expression by flow cytometry in NPM-ALK-transformed CD4+ T cells and ALK+ALCL-derived cells; assay type: cell-based, human; details: 100 nM, FIG. 3B
Description: as §1

IL-10 = IL-10 assay; assay type: cell-based, human; details: 100 nM; FIG. 3C
Description: IL-10 expression was using a Human Cytokine 10-Plex Antibody Bead Kit (Life Technologies) as per manufacturer protocol. Sample acquisition employed a Luminex FlexMAP-3D (Life Technologies), and analyses performed using xPONENT software (version 4.0). A nine-point standard curve at threefold dilutions was employed with the range defined by 80%-120% of expected/observed values. Samples were tested in duplicate and CV was <10%. The results are presented as the decrease in the ALK inhibitor (CEP-28122)-treated cells relative to untreated cells.
Total RNA was extracted (RNeasy kit; Qiagen) and reverse transcribed using High Capacity RNA-to-cDNA kit (ABI). Expression levels of NPM-ALK mRNA were quantified by using an ABI/PRISM 7700 sequence detection system with TaqMan Gene Expression Assay kits (NPM-ALK, Hs03024829; β-actin, Hs9999903) (Life Technologies) and SYBR Green assay (Life Technologies) using primers for IL-10 (5′-AAGGCGCATGTGAACTCC-3′; SEQ ID NO: 1 and 5′-[…]-3′; SEQ ID NO: 2) and for GAPDH (5′-[…]-3′; SEQ ID NO: 3 and 5′-[…]-3′; SEQ ID NO: 4. All assays were performed in duplicate. The fold difference in RNA levels was calculated on the basis of the difference between CT values obtained for control and individual mRNA (ΔCT).

SMILES: COc1c(Nc2ncc(Cl)c(N[C@H]3[C@@H](C(N)=O)[C@@H]4C=C[C@H]3C4)n2)ccc2c1CC[C@@H](N1CCOCC1)CC2 [CEP-28122]
- CD30 expression (CD30 [1]): no effect
- expression of PDL-1 (PD-L1): Suppressive effect
- ALK, STAT3 and S6RP phosphorylation (NPM-ALK [2]): suppress
- cell growth [3]: dose-dependent inhibition
- cell growth ([3]; listed as ALK inhibitor): suppressed
- phosphorylation of cell signaling proteins (ALK, STAT3, S6RP) (NPM-ALK [4]): Suppressive effect
- phosphorylation of cell signaling proteins (ALK, STAT3, S6RP) (NPM-ALK [4]; listed as ALK inhibitor): suppression
- expression of CD30 (CD30 [5]): Suppressive effect
- expression of CD30 (CD30 [5]; listed as ALK inhibitor): diminished
- synthesis of IL-10 (IL-10): Suppressive effect
